Assay results from PubChem BioAssay AID1963827 (Molecular Pharmacology Branch, DTP, NCI, 2024).

Test system: 994946-033-R-J1-PDC complex spheroid viability
Assay: Anticancer human tumor 994946-033-R-J1-PDC patient-derived melanoma cell line growth inhibition [POLQ]
Settings: for IC50: curve of first compound; for viability, T/C: stronger effect = lower value
Outline: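 Growth inhibition in 3D: complex spheroids (tumor PDC, HUVEC, MSC) treated with POLQ inhibitor combinations; where Cmax unknown, highest tested concentration 10 microM, except SN-38 at 1 microM.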

[1] = second compound 0.0316 µM, first compound 0.0316 µM
[2] = second compound 0.0316 µM, first compound 0.1 µM
[3] = second compound 0.0316 µM, first compound 0.316 µM
[4] = second compound 0.0316 µM, first compound 1 µM
[5] = second compound 0.0316 µM, first compound 3.16 µM
[6] = second compound 0.0316 µM, first compound 10 µM
[7] = second compound 0.1 µM, first compound 0.0316 µM
[8] = second compound 0.1 µM, first compound 0.1 µM
[9] = second compound 0.1 µM, first compound 0.316 µM
[10] = second compound 0.1 µM, first compound 1 µM
[11] = second compound 0.1 µM, first compound 3.16 µM
[12] = second compound 0.1 µM, first compound 10 µM
[13] = second compound 0.316 µM, first compound 0.0316 µM
[14] = second compound 0.316 µM, first compound 0.1 µM
[15] = second compound 0.316 µM, first compound 0.316 µM
[16] = second compound 0.316 µM, first compound 1 µM
[17] = second compound 0.316 µM, first compound 3.16 µM
[18] = second compound 0.316 µM, first compound 10 µM
[19] = second compound 1 µM, first compound 0.0316 µM
[20] = second compound 1 µM, first compound 0.1 µM
[21] = second compound 1 µM, first compound 0.316 µM
[22] = second compound 1 µM, first compound 1 µM
[23] = second compound 1 µM, first compound 3.16 µM
[24] = second compound 1 µM, first compound 10 µM
[25] = second compound 3.16 µM, first compound 0.0316 µM
[26] = second compound 3.16 µM, first compound 0.1 µM
[27] = second compound 3.16 µM, first compound 0.316 µM
[28] = second compound 3.16 µM, first compound 1 µM
[29] = second compound 3.16 µM, first compound 3.16 µM
[30] = second compound 3.16 µM, first compound 10 µM
[31] = second compound 10 µM, first compound 0.0316 µM
[32] = second compound 10 µM, first compound 0.1 µM
[33] = second compound 10 µM, first compound 0.316 µM
[34] = second compound 10 µM, first compound 1 µM
[35] = second compound 10 µM, first compound 3.16 µM
[36] = second compound 10 µM, first compound 10 µM
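Further: spheroids exposed to drugs for 7 days.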
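Wherever viability, T/C is given: 100% = DMSO vehicle treated spheroids.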

C#Cc1c(F)ccc2cc(O)cc(-c3ncc4c(N5CC6CCC(C5)N6)nc(OCC56CCCN5CC(F)C6)nc4c3F)c12 (stereo not given) + COC1C(OC(N)=O)C(O)C(Oc2ccc3c(O)c(NC(=O)c4ccc(O)c(CC=C(C)C)c4)c(=O)oc3c2C)OC1(C)C
IC50 (second compound 0.0316 µM): 5.06 µM
IC50 (second compound 0.1 µM): 5.48 µM
IC50 (second compound 0.316 µM): 4.01 µM
IC50 (second compound 1 µM): 5.89 µM
IC50 (second compound 3.16 µM): 4.14 µM
IC50 (second compound 10 µM): 5.33 µM
viability, T/C [1]: 116%
viability, T/C [2]: 121%
viability, T/C [3]: 87.2%
viability, T/C [4]: 139%
viability, T/C [5]: 76.4%
viability, T/C [6]: 11.8%
viability, T/C [7]: 107%
viability, T/C [8]: 98.7%
viability, T/C [9]: 78.8%
viability, T/C [10]: 110%
viability, T/C [11]: 82.7%
viability, T/C [12]: 14.3%
viability, T/C [13]: 106%
viability, T/C [14]: 99.7%
viability, T/C [15]: 96.2%
viability, T/C [16]: 84.7%
viability, T/C [17]: 61%
viability, T/C [18]: 10.2%
viability, T/C [19]: 77.9%
viability, T/C [20]: 114%
viability, T/C [21]: 81.7%
viability, T/C [22]: 71.5%
viability, T/C [23]: 82.5%
viability, T/C [24]: 26.6%
viability, T/C [25]: 98.2%
viability, T/C [26]: 92.7%
viability, T/C [27]: 105%
viability, T/C [28]: 94.7%
viability, T/C [29]: 62.3%
viability, T/C [30]: 9.63%
viability, T/C [31]: 94.8%
viability, T/C [32]: 93.2%
viability, T/C [33]: 65.9%
viability, T/C [34]: 92%
viability, T/C [35]: 86.3%
viability, T/C [36]: 6.26%

CC1COCCN1c1cc(C2(O)CC3CCC(C2)O3)c2cnn(-c3ccn[nH]3)c2n1 (stereo not given) + COC1C(OC(N)=O)C(O)C(Oc2ccc3c(O)c(NC(=O)c4ccc(O)c(CC=C(C)C)c4)c(=O)oc3c2C)OC1(C)C
IC50 (second compound 0.0316 µM): 0.0366 µM
IC50 (second compound 0.1 µM): 0.0505 µM
IC50 (second compound 0.316 µM): 0.034 µM
IC50 (second compound 1 µM): 0.0681 µM
IC50 (second compound 3.16 µM): < 0.0316 µM
IC50 (second compound 10 µM): 0.0445 µM
viability, T/C [1]: 52.4%
viability, T/C [2]: 39.7%
viability, T/C [3]: 17.2%
viability, T/C [4]: 25.7%
viability, T/C [5]: 12.7%
viability, T/C [6]: 6.6%
viability, T/C [7]: 61.9%
viability, T/C [8]: 32.1%
viability, T/C [9]: 19.1%
viability, T/C [10]: 17.5%
viability, T/C [11]: 11.9%
viability, T/C [12]: 6.15%
viability, T/C [13]: 52.1%
viability, T/C [14]: 29.5%
viability, T/C [15]: 19.2%
viability, T/C [16]: 16.5%
viability, T/C [17]: 14.3%
viability, T/C [18]: 6.89%
viability, T/C [19]: 79.2%
viability, T/C [20]: 30.6%
viability, T/C [21]: 25.5%
viability, T/C [22]: 20.1%
viability, T/C [23]: 14.2%
viability, T/C [24]: 5.41%
viability, T/C [25]: 46.6%
viability, T/C [26]: 25.5%
viability, T/C [27]: 23.7%
viability, T/C [28]: 18.9%
viability, T/C [29]: 8.1%
viability, T/C [30]: 4.51%
viability, T/C [31]: 56.8%
viability, T/C [32]: 35.9%
viability, T/C [33]: 27.6%
viability, T/C [34]: 22.5%
viability, T/C [35]: 15.3%
viability, T/C [36]: 5.9%

CCc1cc2c(N3CCc4c(cc(Cn5ccnc5)cc4-c4cn(C)nc4C(F)(F)F)C3=O)cc(C)nc2c(OC)n1 + COC1C(OC(N)=O)C(O)C(Oc2ccc3c(O)c(NC(=O)c4ccc(O)c(CC=C(C)C)c4)c(=O)oc3c2C)OC1(C)C
IC50 (second compound 0.0316 µM): > 10 µM
IC50 (second compound 0.1 µM): > 10 µM
IC50 (second compound 0.316 µM): > 10 µM
IC50 (second compound 1 µM): > 10 µM
IC50 (second compound 3.16 µM): > 10 µM
IC50 (second compound 10 µM): > 10 µM
viability, T/C [1]: 105%
viability, T/C [2]: 86.1%
viability, T/C [3]: 89.6%
viability, T/C [4]: 83%
viability, T/C [5]: 73.4%
viability, T/C [6]: 64%
viability, T/C [7]: 83.5%
viability, T/C [8]: 71.5%
viability, T/C [9]: 75.1%
viability, T/C [10]: 86.9%
viability, T/C [11]: 83.2%
viability, T/C [12]: 75.1%
viability, T/C [13]: 111%
viability, T/C [14]: 90.2%
viability, T/C [15]: 86.1%
viability, T/C [16]: 51.9%
viability, T/C [17]: 54%
viability, T/C [18]: 70.5%
viability, T/C [19]: 100%
viability, T/C [20]: 71.3%
viability, T/C [21]: 86.9%
viability, T/C [22]: 82.2%
viability, T/C [23]: 88.9%
viability, T/C [24]: 91%
viability, T/C [25]: 66%
viability, T/C [26]: 100%
viability, T/C [27]: 80.8%
viability, T/C [28]: 78.2%
viability, T/C [29]: 73.1%
viability, T/C [30]: 63.8%
viability, T/C [31]: 68.1%
viability, T/C [32]: 93.4%
viability, T/C [33]: 64.6%
viability, T/C [34]: 82.2%
viability, T/C [35]: 51.1%
viability, T/C [36]: 69.9%

CCc1cc2c(N3CCc4c(cc(Cn5ccnc5)cc4-c4cn(C)nc4C(F)(F)F)C3=O)ccnc2c(OC)n1 + COC1C(OC(N)=O)C(O)C(Oc2ccc3c(O)c(NC(=O)c4ccc(O)c(CC=C(C)C)c4)c(=O)oc3c2C)OC1(C)C
IC50 (second compound 0.0316 µM): > 10 µM
IC50 (second compound 0.1 µM): > 10 µM
IC50 (second compound 0.316 µM): > 10 µM
IC50 (second compound 1 µM): > 10 µM
IC50 (second compound 3.16 µM): > 10 µM
IC50 (second compound 10 µM): > 10 µM
viability, T/C [1]: 98.9%
viability, T/C [2]: 72.2%
viability, T/C [3]: 61.1%
viability, T/C [4]: 73.3%
viability, T/C [5]: 63.3%
viability, T/C [6]: 70%
viability, T/C [7]: 92.7%
viability, T/C [8]: 77.8%
viability, T/C [9]: 96.2%
viability, T/C [10]: 78.8%
viability, T/C [11]: 61.2%
viability, T/C [12]: 81.2%
viability, T/C [13]: 100%
viability, T/C [14]: 98.3%
viability, T/C [15]: 70.6%
viability, T/C [16]: 66.1%
viability, T/C [17]: 86.4%
viability, T/C [18]: 63.7%
viability, T/C [19]: 91.6%
viability, T/C [20]: 75.7%
viability, T/C [21]: 94.1%
viability, T/C [22]: 85.3%
viability, T/C [23]: 68.1%
viability, T/C [24]: 69%
viability, T/C [25]: 91.9%
viability, T/C [26]: 77.3%
viability, T/C [27]: 81.7%
viability, T/C [28]: 73.8%
viability, T/C [29]: 74.3%
viability, T/C [30]: 54%
viability, T/C [31]: 91.7%
viability, T/C [32]: 77.6%
viability, T/C [33]: 67.1%
viability, T/C [34]: 81.2%
viability, T/C [35]: 64.3%
viability, T/C [36]: 58.9%

COc1cc2cc(C(=O)CCC(=O)O)sc2cc1OC + COC1C(OC(N)=O)C(O)C(Oc2ccc3c(O)c(NC(=O)c4ccc(O)c(CC=C(C)C)c4)c(=O)oc3c2C)OC1(C)C
IC50 (second compound 0.0316 µM): > 10 µM
IC50 (second compound 0.1 µM): > 10 µM
IC50 (second compound 0.316 µM): > 10 µM
IC50 (second compound 1 µM): > 10 µM
IC50 (second compound 3.16 µM): > 10 µM
IC50 (second compound 10 µM): > 10 µM
viability, T/C [1]: 91.3%
viability, T/C [2]: 83%
viability, T/C [3]: 98.6%
viability, T/C [4]: 118%
viability, T/C [5]: 98.8%
viability, T/C [6]: 96.8%
viability, T/C [7]: 89.9%
viability, T/C [8]: 101%
viability, T/C [9]: 109%
viability, T/C [10]: 116%
viability, T/C [11]: 86.8%
viability, T/C [12]: 77.5%
viability, T/C [13]: 93.5%
viability, T/C [14]: 102%
viability, T/C [15]: 84.5%
viability, T/C [16]: 82.4%
viability, T/C [17]: 105%
viability, T/C [18]: 86.4%
viability, T/C [19]: 93.4%
viability, T/C [20]: 90.8%
viability, T/C [21]: 94.1%
viability, T/C [22]: 76.9%
viability, T/C [23]: 83.3%
viability, T/C [24]: 100%
viability, T/C [25]: 101%
viability, T/C [26]: 75.9%
viability, T/C [27]: 106%
viability, T/C [28]: 82.4%
viability, T/C [29]: 87.5%
viability, T/C [30]: 78.6%
viability, T/C [31]: 90.8%
viability, T/C [32]: 109%
viability, T/C [33]: 83.7%
viability, T/C [34]: 71.4%
viability, T/C [35]: 105%
viability, T/C [36]: 80.6%
